Reference: PubChem BioAssay (NCI)
Where “and” joins values, the source holds several entries; their conditions need not be identical. Equal values may be shown once.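 Cells were grown in 96-well plates and exposed to each compound for 48 hours at five concentrations; endpoints were interpolated linearly between bracketing concentrations, or set to the highest concentration if not reached. Here, GI50 denotes the concentration required for 50% inhibition of growth. At the TGI there is no net growth.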

What was measured:
Test in all cases: NCI-60 cell line screen, 48 h
HOP-62 NSCLC = test system: HOP-62 NSCLC
OVCAR-5 ovarian = test system: OVCAR-5 ovarian
HL-60(TB) leukemia = test system: HL-60(TB) leukemia
TK-10 renal = test system: TK-10 renal
BT-549 breast = test system: BT-549 breast
A549 NSCLC = test system: A549 NSCLC
SN12C renal = test system: SN12C renal
EKVX NSCLC = test system: EKVX NSCLC
SK-MEL-2 melanoma = test system: SK-MEL-2 melanoma
K-562 leukemia = test system: K-562 leukemia

Compound	GI50 (HOP-62 NSCLC)	TGI (HOP-62 NSCLC)	GI50 (OVCAR-5 ovarian)	TGI (OVCAR-5 ovarian)	GI50 (HL-60(TB) leukemia)	TGI (HL-60(TB) leukemia)	GI50 (TK-10 renal)	TGI (TK-10 renal)	GI50 (BT-549 breast)	TGI (BT-549 breast)	GI50 (A549 NSCLC)	TGI (A549 NSCLC)	GI50 (SN12C renal)	TGI (SN12C renal)	GI50 (EKVX NSCLC) [µM]	TGI (EKVX NSCLC)	GI50 (SK-MEL-2 melanoma) [µM]	TGI (SK-MEL-2 melanoma)	GI50 (K-562 leukemia)	TGI (K-562 leukemia)
CC1=C(C(=O)Nc2ccc(Cl)c(Cl)c2)C(c2cccc(Oc3ccccc3)c2)NC(=O)N1 (stereo not drawn)	14.6 µM	26.5 µM	13.4 µM	33 µM	22.8 µM	> 50 µM	20.7 µM	> 50 µM	4.23 µM	14.3 µM	3.94 µM	> 50 µM	5.28 µM	12.5 µM	5.21	16.3 µM	5.68	17.9 µM	18.6 µM	> 50 µM
N#CC1=C(N)Oc2cc(O)ccc2C1c1cccc2ccccc12 (stereo not drawn)	13.5 µM	31.7 µM	14.6 µM	28.8 µM	3.16 µM	11.7 µM	15.6 µM	45.6 µM	7.52 µM	29.6 µM	7.02 µM	> 100 µM	20.4 µM	58.3 µM	17	> 100 µM	11.7	24.3 µM	3.68 µM	17 µM
CCOC(=O)/C=C(/C)Sc1cc(O)c2ccccc2c1O	3.02 µM	12.9 µM	17.5 µM	34 µM	2.29 µM	5.72 µM	8.29 µM	17.9 µM	2.93 µM	10.5 µM	2.5 µM	5.99 µM	2.48 µM	7.29 µM	3.89	21.2 µM			2.48 µM	6.68 µM
COc1ccc(-c2coc3c4c(ccc3c2=O)OCO4)cc1OC		> 100 µM		> 100 µM		> 100 µM		> 100 µM		> 100 µM		> 100 µM		> 100 µM		> 100 µM		> 100 µM		> 100 µM
CSc1ccc2c(c1)C(=O)c1c-2n(CCCBr)c(=O)c2cc([N+](=O)[O-])ccc12	1.05 µM	19.6 µM	> 100 µM	> 100 µM	0.532 µM	8.46 µM	> 100 µM	> 100 µM	80.7 µM	> 100 µM	7.61 µM	> 100 µM	0.893 µM	6.95 µM	> 100	> 100 µM	> 100	> 100 µM	3.94 µM	19.3 µM
Cc1nn(C(=O)c2ccc(Cl)cc2)c2c1C(/C=C/c1ccccc1)SC(N)=N2 (stereo not drawn)		> 10 µM		> 10 µM		> 10 µM		> 10 µM		> 10 µM		> 10 µM		> 10 µM		> 10 µM		> 10 µM		> 10 µM
OCc1ccn2c1[C@@H](O)CC2		> 100 µM		> 100 µM		> 100 µM		> 100 µM		> 100 µM		> 100 µM		> 100 µM		> 100 µM		> 100 µM		> 100 µM
CC[C@H]1CN2CCc3cc(OC)c(OC)cc3[C@@H]2C[C@@H]1C[C@H]1NCCc2c1[nH]c1ccc(O)cc21	0.0264 µM and 0.0298 µM	0.0748 µM and 0.0941 µM and 0.0488 µM	0.0246 µM and 0.0401 µM	0.091 µM and 0.335 µM and 0.379 µM	0.0296 µM and 0.025 µM	0.0955 µM and 0.0514 µM and 0.0353 µM	0.0943 µM	0.277 µM and 0.875 µM and 0.728 µM	0.558 µM	0.602 µM	0.0192 µM and 0.0336 µM	0.0627 µM and 0.121 µM and 0.321 µM	0.0228 µM and 0.0349 µM	0.0741 µM and 0.136 µM and 0.19 µM	0.0409	0.401 µM and 0.125 µM	0.0228	0.052 µM and 0.0353 µM	0.0263 µM and 0.0353 µM	
c1ccc2c(c1)c1c(c3ccccc32)CN2CCCC2C1 (stereo not drawn)		> 31.9 µM		> 43.4 µM		4.21 µM		> 90.8 µM		53.9 µM		17.9 µM		14.9 µM		> 100 µM		9.1 µM		> 100 µM
COc1cc2c(c(OC)c1OC)-c1ncc3cc4c(cc3c1C2)OCO4	21.7 µM	46.6 µM	> 100 µM	> 100 µM	26.3 µM	> 100 µM	26.2 µM	67.3 µM	3.76 µM	20.1 µM	21.1 µM	97.9 µM	13.4 µM	40.8 µM	15.6	51.7 µM	38.9	> 100 µM	2.27 µM	> 100 µM
O=C1NC(=O)/C(=C\c2ccccc2)C2=C1CCCC2	7.31 µM	25.8 µM	3.53 µM	12 µM	3.25 µM	12.5 µM	12 µM	25.3 µM	4.13 µM	16.4 µM	19.7 µM	51.6 µM	3.03 µM	11 µM	14.3	29.5 µM	7.72	22.9 µM	5.39 µM	> 40.3 µM
O=S(=O)(Nc1ccc(F)cc1F)c1ccc(-c2cnc(C3CC3)o2)cc1	0.724 µM	47.6 µM	2.71 µM	> 100 µM	0.397 µM	6.39 µM	3.2 µM	48.3 µM	0.597 µM	24 µM	0.868 µM	> 100 µM	0.878 µM	39.8 µM	1.44	> 73 µM	0.737	34.6 µM	0.211 µM	> 100 µM
OCCCNc1nccc(-c2c(-c3ccc(F)cc3)nn3cc(C(F)(F)F)ccc23)n1	> 23.4 µM	> 25 µM	> 22.9 µM	> 25 µM	> 19.6 µM	> 25 µM	15.9 µM	> 25 µM	> 25 µM	> 25 µM	17.3 µM	> 25 µM	13.3 µM	> 25 µM	20.5	> 25 µM	> 23.1	> 25 µM	10.4 µM	> 25 µM
CCOC(=O)c1c(NC(=O)c2cccc(C(F)(F)F)c2)sc2c(CN(C)C)c(O)ccc12	13.8 µM	27.7 µM	4.58 µM	16.7 µM	1.89 µM	4.26 µM	4.25 µM	15.8 µM	12.2 µM	26.9 µM	3.3 µM	12.7 µM	7.68 µM	20.4 µM	15.2	36.1 µM	2.57	6.92 µM	1.83 µM	4.76 µM
C=C1C(=O)O[C@H]2[C@H]1CC/C(COC(=O)/C=C\C(=O)NCc1ccc(Cn3c(=O)sn(CCCC)c3=O)cc1)=C\CC[C@@]1(C)O[C@@H]21	1.63 µM	3.46 µM	1.33 µM	2.75 µM	0.396 µM	1.77 µM	0.61 µM	1.78 µM	0.909 µM	2.23 µM	1.56 µM	4.16 µM	0.865 µM	2.25 µM	1.48	2.85 µM	1.67	3.31 µM	0.316 µM	4.82 µM
Cc1[nH]c(/C=C2\C(=O)Nc3ccccc32)c(C)c1CCC(=O)O	23.7 µM	> 100 µM	21.5 µM	81.8 µM and 97.4 µM	20.2 µM	45.8 µM	35 µM	> 100 µM	22.5 µM	73.9 µM and > 100 µM	24.3 µM	> 100 µM	24.7 µM	> 100 µM	20.9	89.9 µM and 97.4 µM		38.5 µM and 38.8 µM		> 100 µM
CC1(C)CC(=O)C(C=NC(=O)c2ccncc2)=C(O)C1		> 100 µM		> 100 µM		> 100 µM		> 100 µM		> 100 µM		> 100 µM		> 100 µM		> 100 µM		> 100 µM		
CCOc1ccncc1[N+](=O)[O-]		> 100 µM		> 100 µM		> 100 µM		> 100 µM		> 100 µM		> 100 µM		> 100 µM		> 100 µM		> 100 µM		> 100 µM
Cc1nn(C(=O)Cc2ccccc2)c2c1C(c1ccc(Cl)cc1)SC(N)=N2 (stereo not drawn)		> 100 µM				> 100 µM		> 100 µM		> 100 µM		> 100 µM		> 100 µM		> 100 µM				> 100 µM
NC(=O)OCCn1cc(-c2nc(-c3c[nH]c4ncccc34)cs2)c2ccccc21	1.07 µM	7.87 µM	2.21 µM	43.8 µM	2.12 µM	5.45 µM	2.24 µM	7.66 µM	1.5 µM	6.04 µM	2.34 µM	23 µM	2.46 µM	32.4 µM	1.3	7.68 µM	1.52	3.96 µM	1.55 µM	14 µM
CN1C(=O)/C(=C/c2c(Cl)n(C)c3ccccc23)c2ccccc21	2.99 µM	8.96 µM	3.61 µM and 1.85 µM	3.25 µM	0.44 µM	10.2 µM	9.52 µM and 1.38 µM	2.67 µM	3.31 µM	9.25 µM	7.78 µM		1.82 µM	9.33 µM	2.11	6.03 µM	5		3.15 µM	
CCn1sc2ccccc2c1=O		34.3 µM		> 27.5 µM		13 µM		30.9 µM		25.7 µM		40.4 µM		22.7 µM		38.2 µM		53.9 µM		> 100 µM
COC(=O)[C@@H](C)C[C@H](Cc1ccccc1)NC(=O)c1csc([C@@H](C[C@H](C(C)C)N(C)C(=O)[C@@H](NC(=O)[C@H]2CCCCN2C)C2CCCCC2)OC(C)=O)n1	0.00213 µM and 0.0025 µM	> 25 µM	0.00685 µM and 0.0025 µM	> 25 µM	0.000306 µM and < 0.0025 µM	0.00159 µM and < 0.0025 µM	0.0181 µM and 0.0025 µM	> 25 µM	0.000701 µM and 0.0025 µM		0.0022 µM and 0.0025 µM	> 25 µM	0.0041 µM and 0.0025 µM	8.9 µM	0.00278				0.000374 µM and 0.0025 µM	4.33 µM
O=C1NC(=O)C(c2cccc([N+](=O)[O-])c2)=C1Nc1cc(Cl)c(O)c(Cl)c1	> 25 µM	> 25 µM	> 25 µM	> 25 µM	> 25 µM	> 25 µM	> 17.7 µM	> 25 µM	> 16.2 µM	> 25 µM	> 25 µM	> 25 µM	> 25 µM	> 25 µM	> 25	> 25 µM	> 19.8	> 25 µM	> 25 µM	> 25 µM
CC(=O)Oc1ccccc1C(=O)Nc1ncc([N+](=O)[O-])s1	4.45 µM	> 75.6 µM	4.07 µM	> 100 µM	1.77 µM	4.24 µM	3.75 µM	10.3 µM and > 100 µM	1.97 µM		2.94 µM	> 100 µM	1.87 µM	21.2 µM and 90.9 µM	2.66	> 100 µM	2.05		2.53 µM	18.8 µM and > 100 µM
O[C@H](c1cc(C(F)(F)F)nc2c(C(F)(F)F)cccc12)[C@@H]1CCCCN1	4.73 µM	11.8 µM	7.21 µM	20.7 µM	2.08 µM	4.51 µM	2.85 µM	10.4 µM	12.1 µM	25.5 µM	5.25 µM	16.3 µM	4.19 µM	14 µM	4.32	17.3 µM	3.26	11.9 µM	2.87 µM	9.17 µM
NC(=O)c1cc(S(=O)(=O)Nc2nnc(-c3ccccc3)c(-c3ccccc3)n2)c(SCc2ccccc2)cc1Cl	> 100 µM	> 100 µM	> 100 µM	> 100 µM	23.1 µM	49.6 µM	> 100 µM	> 100 µM	> 53.1 µM	> 89.7 µM	> 100 µM	> 100 µM	> 50.8 µM	> 82.6 µM	> 100	> 100 µM	> 43.1	> 60.7 µM	54.6 µM	> 100 µM
O=C(O)c1ccc(OCc2ccccc2)c(Cl)c1		> 100 µM		> 100 µM		> 100 µM		> 100 µM		> 100 µM		> 100 µM		> 100 µM		> 100 µM		> 100 µM		> 100 µM
COCC1(CO)C(=O)C2CCN1CC2 (stereo not drawn)	> 100 µM	> 100 µM	26.2 µM	> 55.7 µM	18.9 µM	45.2 µM	16.8 µM	31.1 µM	15.6 µM	29.5 µM	> 79 µM	> 100 µM	16.1 µM	31.1 µM	18.1	43.4 µM	20.6	46.5 µM	19.9 µM	58.5 µM
